This is an account of results in US20060204980A1, “Colorectal cancer therapies” (priority 2004, published 2006).

For one data set, the system named is p42/p44 MAP kinase. The following applies: in vivo, Knockaert et al.; cited from earlier work.
Data set [1] concerns p53^+/+ HCT116 colorectal carcinoma cells. In words: Western blotting of p53 pathway proteins in treated p53+/+ HCT116 cells. The data set is classed as cell-based. The method, then: Cells were collected and centrifuged at 3,000 rpm for 5 minutes at 4° C., and washed in PBS (pH 7.2). The cell pellet was solubilized in lysis buffer (20 mM Tris, pH 7.2, 0.5% deoxycholate, 1% Triton X-100, 0.1% SDS, 150 mM NaCl, 1 mM EDTA) containing proteases inhibitors (Complete, Roche Applied Science) for 30 min at 4° C. The lysate was cleared by centrifugation for 15 minutes, and protein concentration was evaluated using a Bio-Rad protein assay system (Bio-Rad Laboratories, Hercules, Calif.). Samples (30 μg) were separated by SDS-polyacrylamide gel, transferred to nylon membranes (Millipore), and incubated with primary antibodies to p53 (Oncogene Research Products, FL-393, Santa Cruz Biotechnology, Inc., Santa Cruz, Calif.), p21^Waf1/Cip1 (Oncogene Research Products), XIAP (BD Transduction Laboratories), survivin (NOVUS Biologicals, Littleton, Colo.), MDM2 (Santa Cruz Biotechnology, Inc.), p14^ARF (NOVUS Biologicals), caspase-3 (Cell Signaling Technology), cleaved caspase-3 (Cell Signaling Technology), β-catenin (BD Transduction Laboratories), cyclin B1 (GNS1, Santa Cruz Biotechnology, Inc.), GSK3β (Santa Cruz Biotechnology, Inc.), or β-sactin (Sigma) with detection of reactive bands by chemiluminescence (Amersham). Cells were analyzed for hypodiploid DNA content by propidium iodide staining and flow cytometry as described in O'Connor et al., Cancer Cell, 2:43-54 (2002). Chemicals whose source is not explicitly listed were or can be obtained from Sigma.
To explore the link between GSK3β inhibition and p53 modulation, in vivo, HCT116 cells were treated with Li, TDZD or SB216763, and analyzed cells by Western blotting. p53^+/+ or p53^−/− HCT116 cells were incubated with the following GSK3β inhibitors, LiCl (Sigma, 30 mM), thiadiazolidinone-8 (TDZD) (Calbiochem, 0-20 μM), or SB216763 (Sigma, 20 μM), cells were harvested after 6-24 hours, and samples were analyzed by Western blotting as described in Example 2. […]

In data set [2] the test system is wild-type (WT) or GSK3β^−/− primary murine embryonic fibroblasts (MEF) cells. As to the kind of experiment: Western blotting of p53 in wild-type or GSK3β-/- primary MEF cells. Set-up: dose or concentration left out as unconfirmed. The data set is classed as cell-based. Conditions: Purvalanol A, 6-24 hour. The source says:
To confirm the link between GSK3β inhibition and p53 modulation in vivo, p53^+/+ HCT116 cells were transfected with wild-type GSK3β or a kinase-dead GSK3β dominant negative mutant (GSK3β DN mutant), previously described in Pap and Cooper, J. Biol. Chem., 273:19929-19932 (1998). Non-transformed wild-type (WT) or GSK3β^−/− primary murine embryonic fibroblasts (MEF) cells, described in Hoeflich et al., Nature, 406:86-90 (2000), were maintained in culture in DMEM supplemented with 10% FCS, 100 U/ml penicillin, and 100 μg/ml streptomycin (all from Invitrogen) in 5% CO2 at 37° C. […] Western blotting was performed as described in Example 2, to evaluate the expression of p53, p21^Waf1/Cip1 or β-actin at 6-24 hour intervals.

Another data set addresses GSK3β (Homo sapiens, UniProt P49841). As to the kind of experiment: Immunoprecipitation and GSK3β kinase assay using glycogen synthase-derived peptide substrate, from treated HCT116 cells. Format: cell-based. More on the design: harvested after 6 or 12 hours, and immunoprecipitated with an antibody to GSK3β; endogenous in cells; host or cells: HCT116 (p53+/+) colorectal carcinoma cells. The following applies: p53+/+ HCT116 cells; Purvalanol A 10 μM, LiCl 30 mM, TDZD 20 μM; 6 or 12 hours. The method, then: Immune complexes were mixed with a synthetic peptide containing a GSK3β phosphorylation site derived from the sequence of glycogen synthase (Upstate Biotechnology) in the presence of 10 μCi of γ-^32P-ATP (Amersham Corp., Piscataway, N.J.), after 30 min incubation at 30° C., the reaction mixtures were centrifuged briefly, and 15 μl of the supernatant was spotted onto P81 phosphocellulose paper (Whatman Inc., Clifton, N.J.). The membrane was washed three times with 175 mM phosphoric acid, rinsed once in acetone, and dried. Changes in peptide phosphorylation under the various conditions tested were determined by scintillation counting. Data were analyzed using the unpaired t test on a Graphpad Prism software package for Windows (Graphpad Inc., San Diego, Calif.). A P value of 0.05 was considered as statistically significant.

In another data set the target is T1, p34^cdc2 (Homo sapiens, UniProt P06493).
T1 construct: p34^cdc2 that was immunoprecipitated from HCT116 cells treated with vehicle for 6 to 48 hours consistently phosphorylated histone H1; endogenous in cells; host or cells: HCT116 colorectal carcinoma cells
In words: H1 histone kinase assay of p34cdc2 immunoprecipitated from treated HCT116 cells. Format: cell-based. The protocol: As shown in FIG. 2C (lanes labeled None), p34^cdc2 that was immunoprecipitated from HCT116 cells treated with vehicle for 6 to 48 hours consistently phosphorylated histone H1.

Data set [3] deals with in vivo adapted p53^+/+ HCT116 cells. In words: Xenograft tumor model with in vivo adapted p53+/+ HCT116 cells. Set-up: species or system CB17 SCID/beige mice. The method, then:
In vivo adapted p53^+/+ HCT116 cells (2.5×10^6) were injected in the flank of CB17 SCID/beige mice (Taconics, Germantown, N.Y.) and allowed to form palpable solid tumors for 4-6 days. […] Tumor measurements were taken daily for a week with a caliper. Tumor volume was calculated according to the formula ½ [length (mm)]×[width (mm)]^2.
Adapted HCT116 cells in CB-17 SCID/beige mice gave rise to rapidly growing solid tumors over a one-week period. […] See filled-in circles in FIG. 7.

Entries after “also recorded” stand apart in the source; their conditions may differ.

T1 sequence (P06493 whole entry): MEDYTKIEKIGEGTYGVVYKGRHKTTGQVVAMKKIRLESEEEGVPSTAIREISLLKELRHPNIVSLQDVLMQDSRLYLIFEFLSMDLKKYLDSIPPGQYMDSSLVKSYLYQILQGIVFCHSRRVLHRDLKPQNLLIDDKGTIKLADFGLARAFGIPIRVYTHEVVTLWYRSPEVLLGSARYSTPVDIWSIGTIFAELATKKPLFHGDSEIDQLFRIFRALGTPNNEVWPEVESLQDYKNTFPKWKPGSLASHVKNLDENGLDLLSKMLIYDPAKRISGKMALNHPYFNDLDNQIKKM
T1 sequence (P14635 whole entry partner): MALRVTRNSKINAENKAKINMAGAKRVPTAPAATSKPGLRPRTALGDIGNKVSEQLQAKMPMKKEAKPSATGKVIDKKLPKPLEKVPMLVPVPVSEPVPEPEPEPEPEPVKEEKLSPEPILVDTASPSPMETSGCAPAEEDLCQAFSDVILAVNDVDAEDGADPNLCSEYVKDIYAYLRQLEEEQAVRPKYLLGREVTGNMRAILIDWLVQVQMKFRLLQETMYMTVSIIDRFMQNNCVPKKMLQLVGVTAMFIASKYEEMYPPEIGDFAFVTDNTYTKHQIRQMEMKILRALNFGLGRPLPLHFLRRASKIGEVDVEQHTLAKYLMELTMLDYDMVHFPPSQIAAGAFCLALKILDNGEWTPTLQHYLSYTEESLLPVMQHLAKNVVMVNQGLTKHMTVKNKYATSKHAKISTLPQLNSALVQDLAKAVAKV
Sequence of GSK3β (P49841 whole entry): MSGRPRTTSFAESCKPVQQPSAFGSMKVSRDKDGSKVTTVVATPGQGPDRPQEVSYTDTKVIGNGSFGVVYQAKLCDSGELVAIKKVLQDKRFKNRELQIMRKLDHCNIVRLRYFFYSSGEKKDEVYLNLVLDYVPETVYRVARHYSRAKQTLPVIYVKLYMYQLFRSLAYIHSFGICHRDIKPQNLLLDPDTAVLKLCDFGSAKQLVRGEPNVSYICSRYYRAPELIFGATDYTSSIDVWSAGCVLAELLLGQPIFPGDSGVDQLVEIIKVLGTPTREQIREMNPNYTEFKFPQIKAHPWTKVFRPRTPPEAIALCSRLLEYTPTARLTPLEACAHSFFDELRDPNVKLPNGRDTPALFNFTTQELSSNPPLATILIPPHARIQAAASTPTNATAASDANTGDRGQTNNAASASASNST

`CC(C)[C@H](CO)Nc1nc(Nc2cccc(Cl)c2)c2ncn(C(C)C)c2n1` [Purvalanol A]: in the data set with p42/p44 MAP kinase, the “suppression of p42/p44 MAP kinase” value is reported as “equally effective”. The “MDM2 expression (Western blot)” value in data set [1] (HCT116 cells) is “reduced expression”. For the same compound, the “p14^ARF expression (Western blot)” value in data set [1] (HCT116 cells, relative to vehicle) is recorded as “upregulation of p14^ARF”. Further, the “XIAP expression (Western blot)” value in data set [1] (p53+/+ HCT116) was “no changes in the expression”. The “survivin expression (Western blot)” value in data set [1] (p53+/+ HCT116) was “loss of survivin expression; also recorded: time-dependent downregulation of survivin”. Also, in data set [1] (p53+/+ HCT116, 10 μM, 6-48 hour), the “caspase-3 cleavage (Western blot)” value is on record as “time-dependent cleavage of 32 kD proform caspase-3 to active caspase-3 fragments”. For the same compound, the “p21^Waf1/Cip1 expression (Western blot)” value in data set [1] (p53+/+ HCT116, 6-24 hours) was “upregulation of p21^Waf1/Cip1”. The “p53 expression (Western blot)” value was “time-dependent accumulation of p53” in data set [1] (p53+/+ HCT116, 6-24 hours) and “did not further modulate p53 expression” in data set [2]. For the same compound, the “GSK3β kinase activity (peptide phosphorylation)” value on GSK3β is listed as “potently inhibited GSK3β kinase activity”. The “p34^cdc2 kinase activity (histone H1 phosphorylation)” value was “no apparent inhibition of p34^cdc2 kinase activity” at p34^cdc2 (6 and 12 hours of treatment); “did appear to suppress histone H1 phosphorylation” on p34^cdc2 (24 and 48 hours of treatment). Further, the “systemic toxicity, weight loss” value in data set [3] (20 mg/kg i.p. daily for 5 consecutive days) is recorded as “No signs of systemic toxicity or weight loss”. Further, the “early tumor growth (tumor volume)” value in data set [3] (25 mg/kg i.p. daily for 5 days) is reported as “significantly inhibited early tumor growth”. For the same compound, the “tumor growth (tumor volume)” value in data set [3] (50 mg/kg i.p. injection daily for 5 days, versus lower dose) is given as “did not result in further inhibition of tumor growth”. Also, the “local or systemic toxicity, weight loss” value in data set [3] (25 and 50 mg/kg i.p. daily for 5 days) was “no signs of local or systemic toxicity or weight loss”.
